Measurements published in patent publication US20050204416A1, “Plant cells having receptor polypeptides” (priority 2004, published 2005).

Legend:
[1] = target: T1, VP16-human estrogen receptor alpha (ERa) chimeric polypeptide (Homo sapiens, UniProt P03372, G400V)
Protocol: About 50 selected lines were obtained and cultured at 27° C. on N6 media containing 5 mg/ml bialaphos, with transfer to fresh media occurring about every 2 weeks. […] After incubation for about 40 hours, callus cells were examined under a dissecting microscope at 10× to 60× magnification.

[2] = target: T1, VP16-human estrogen receptor alpha (ERa) chimeric polypeptide; assay: Transgenic Arabidopsis T2 seedlings containing VP16ERα and ERE-GFP constructs, green fluorescence; type: cell-based; parameters: expressed in transfected cells; host or cells: transgenic rice callus (A1); transgenic Arabidopsis T2 seedlings (A2); Agrobacterium binary vector Bin4-EUTG-10::VPCR-ER-1#81, CaMV35S promoter

T1 sequence (P03372 with tags, fused parts or gaps G400V): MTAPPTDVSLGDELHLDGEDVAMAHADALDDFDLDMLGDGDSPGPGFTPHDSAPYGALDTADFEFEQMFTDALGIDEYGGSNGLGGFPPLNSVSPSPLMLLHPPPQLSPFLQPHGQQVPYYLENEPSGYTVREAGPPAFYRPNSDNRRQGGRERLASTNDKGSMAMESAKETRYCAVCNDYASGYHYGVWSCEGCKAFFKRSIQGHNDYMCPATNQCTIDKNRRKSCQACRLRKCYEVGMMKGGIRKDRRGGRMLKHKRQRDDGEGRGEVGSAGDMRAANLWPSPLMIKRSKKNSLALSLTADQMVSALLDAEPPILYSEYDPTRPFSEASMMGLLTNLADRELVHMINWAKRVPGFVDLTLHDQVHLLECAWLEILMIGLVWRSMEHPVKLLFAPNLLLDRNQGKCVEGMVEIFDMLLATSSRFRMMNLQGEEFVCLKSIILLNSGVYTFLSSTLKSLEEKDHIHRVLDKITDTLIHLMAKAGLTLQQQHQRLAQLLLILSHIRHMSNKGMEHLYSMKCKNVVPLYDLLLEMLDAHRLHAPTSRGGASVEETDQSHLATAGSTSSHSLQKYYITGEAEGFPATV

In the case of 4-hydroxytamoxifen, the “green fluorescence (GFP reporter) in the presence of the exogenous compound” value [1] is reported as “moderate to very bright green fluorescence” and the “green fluorescence (GFP reporter) of T2 seedlings” value [2] is reported as “moderate to strong green fluorescence”.
